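Briefly, cells in 96-well plates were exposed to five compound concentrations for 48 h, and endpoints were estimated by linear interpolation. Definition used: TGI = concentration required for complete inhibition of growth.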
Assays:
Experiment in all cases: DTP human tumour cell line panel, 48 h
786-0 renal = tested on: 786-0 renal
A549 NSCLC = tested on: A549 NSCLC
ACHN renal = tested on: ACHN renal
BT-549 breast = tested on: BT-549 breast
CAKI-1 renal = tested on: CAKI-1 renal
COLO 205 colon = tested on: COLO 205 colon
DU-145 prostate = tested on: DU-145 prostate
EKVX NSCLC = tested on: EKVX NSCLC
HCC-2998 colon = tested on: HCC-2998 colon
HCT-116 colon = tested on: HCT-116 colon
HCT-15 colon = tested on: HCT-15 colon
HL-60(TB) leukemia = tested on: HL-60(TB) leukemia
HOP-62 NSCLC = tested on: HOP-62 NSCLC
HOP-92 NSCLC = tested on: HOP-92 NSCLC
HS 578T breast = tested on: HS 578T breast
HT29 colon = tested on: HT29 colon
IGROV1 ovarian = tested on: IGROV1 ovarian
K-562 leukemia = tested on: K-562 leukemia
KM12 colon = tested on: KM12 colon
LOX IMVI melanoma = tested on: LOX IMVI melanoma
M14 melanoma = tested on: M14 melanoma
MALME-3M melanoma = tested on: MALME-3M melanoma
MCF7 breast = tested on: MCF7 breast
MDA-MB-231 breast = tested on: MDA-MB-231 breast
MDA-MB-435 = tested on: MDA-MB-435
MDA-N = tested on: MDA-N
MOLT-4 leukemia = tested on: MOLT-4 leukemia
NCI-H226 lung = tested on: NCI-H226 lung
NCI-H23 lung = tested on: NCI-H23 lung
NCI-H460 lung = tested on: NCI-H460 lung
NCI-H522 lung = tested on: NCI-H522 lung
NCI/ADR-RES ovarian = tested on: NCI/ADR-RES ovarian
OVCAR-3 ovarian = tested on: OVCAR-3 ovarian
OVCAR-4 ovarian = tested on: OVCAR-4 ovarian
OVCAR-5 ovarian = tested on: OVCAR-5 ovarian
OVCAR-8 ovarian = tested on: OVCAR-8 ovarian
PC-3 prostate = tested on: PC-3 prostate
RPMI-8226 leukemia = tested on: RPMI-8226 leukemia
RXF 393 renal = tested on: RXF 393 renal
SF-268 CNS = tested on: SF-268 CNS
SF-295 CNS = tested on: SF-295 CNS
SF-539 CNS = tested on: SF-539 CNS
SK-MEL-2 melanoma = tested on: SK-MEL-2 melanoma
SK-MEL-28 melanoma = tested on: SK-MEL-28 melanoma
SK-MEL-5 melanoma = tested on: SK-MEL-5 melanoma
SK-OV-3 ovarian = tested on: SK-OV-3 ovarian
SN12C renal = tested on: SN12C renal
SNB-19 CNS = tested on: SNB-19 CNS
SNB-75 CNS = tested on: SNB-75 CNS
SR leukemia = tested on: SR leukemia
SW-620 colon = tested on: SW-620 colon
T-47D breast = tested on: T-47D breast
TK-10 renal = tested on: TK-10 renal
U251 CNS = tested on: U251 CNS
UACC-257 melanoma = tested on: UACC-257 melanoma
UACC-62 melanoma = tested on: UACC-62 melanoma
UO-31 renal = tested on: UO-31 renal
A498 renal = tested on: A498 renal
CCRF-CEM leukemia = tested on: CCRF-CEM leukemia

## O=C(Nc1cccc2cnccc12)c1cc2c(cc1Cl)Sc1nccn1S2(=O)=O
786-0 renal
  TGI: 33.1 µM
A549 NSCLC
  TGI: > 100 µM
ACHN renal
  TGI: 77.9 µM
BT-549 breast
  TGI: 40.2 µM
CAKI-1 renal
  TGI: 91.5 µM
COLO 205 colon
  TGI: 30.8 µM
DU-145 prostate
  TGI: 55.9 µM
EKVX NSCLC
  TGI: 52.8 µM
HCC-2998 colon
  TGI: 29.9 µM
HCT-116 colon
  TGI: 20 µM
HCT-15 colon
  TGI: 27.8 µM
HL-60(TB) leukemia
  TGI: 21.8 µM
HOP-62 NSCLC
  TGI: 39.7 µM
HOP-92 NSCLC
  TGI: 59.4 µM
HS 578T breast
  TGI: 73.7 µM
HT29 colon
  TGI: 48.3 µM
IGROV1 ovarian
  TGI: 45.8 µM
K-562 leukemia
  TGI: > 100 µM
KM12 colon
  TGI: 21.9 µM
LOX IMVI melanoma
  TGI: 31.8 µM
M14 melanoma
  TGI: > 100 µM
MALME-3M melanoma
  TGI: 38.7 µM
MCF7 breast
  TGI: 37.1 µM
MDA-MB-231 breast
  TGI: 36.5 µM
MDA-MB-435
  TGI: 34.1 µM
MDA-N
  TGI: 23.7 µM
MOLT-4 leukemia
  TGI: 59.4 µM
NCI-H226 lung
  TGI: 38.5 µM
NCI-H23 lung
  TGI: 28.6 µM
NCI-H460 lung
  TGI: 24.1 µM
NCI-H522 lung
  TGI: 33.2 µM
NCI/ADR-RES ovarian
  TGI: 57.8 µM
OVCAR-3 ovarian
  TGI: 56.7 µM
OVCAR-4 ovarian
  TGI: 87.1 µM
OVCAR-5 ovarian
  TGI: 77.8 µM
OVCAR-8 ovarian
  TGI: 62.7 µM
PC-3 prostate
  TGI: > 100 µM
RPMI-8226 leukemia
  TGI: 38.6 µM
RXF 393 renal
  TGI: 24.4 µM
SF-268 CNS
  TGI: 42.2 µM
SF-295 CNS
  TGI: 43.5 µM
SF-539 CNS
  TGI: 59.3 µM
SK-MEL-2 melanoma
  TGI: 32.2 µM
SK-MEL-28 melanoma
  TGI: 53.1 µM
SK-MEL-5 melanoma
  TGI: 26.2 µM
SK-OV-3 ovarian
  TGI: 86 µM
SN12C renal
  TGI: 30.5 µM
SNB-19 CNS
  TGI: 65.3 µM
SNB-75 CNS
  TGI: 47.4 µM
SR leukemia
  TGI: 48.9 µM
SW-620 colon
  TGI: 50.8 µM
T-47D breast
  TGI: 40.8 µM
TK-10 renal
  TGI: 59.2 µM
U251 CNS
  TGI: 32.1 µM
UACC-257 melanoma
  TGI: 45.1 µM
UACC-62 melanoma
  TGI: 26 µM
UO-31 renal
  TGI: 55.6 µM

## COc1cc(OCc2ccc3oc(=O)c(-c4ccccc4)nc3c2)cc(OC)c1OC
786-0 renal
  TGI: > 100 µM
A498 renal
  TGI: > 100 µM
A549 NSCLC
  TGI: > 100 µM
ACHN renal
  TGI: > 100 µM
BT-549 breast
  TGI: > 100 µM
CCRF-CEM leukemia
  TGI: > 100 µM
COLO 205 colon
  TGI: > 100 µM
DU-145 prostate
  TGI: > 100 µM
HCC-2998 colon
  TGI: > 100 µM
HCT-116 colon
  TGI: > 100 µM
HCT-15 colon
  TGI: > 100 µM
HOP-62 NSCLC
  TGI: > 100 µM
HS 578T breast
  TGI: > 100 µM
HT29 colon
  TGI: > 100 µM
IGROV1 ovarian
  TGI: > 100 µM
K-562 leukemia
  TGI: > 100 µM
LOX IMVI melanoma
  TGI: > 100 µM
M14 melanoma
  TGI: > 100 µM
MALME-3M melanoma
  TGI: > 100 µM
MCF7 breast
  TGI: > 100 µM
MDA-MB-231 breast
  TGI: > 100 µM
MDA-MB-435
  TGI: > 100 µM
MDA-N
  TGI: > 100 µM
MOLT-4 leukemia
  TGI: > 100 µM
NCI-H226 lung
  TGI: > 100 µM
NCI-H23 lung
  TGI: > 100 µM
NCI-H460 lung
  TGI: > 100 µM
NCI-H522 lung
  TGI: > 100 µM
NCI/ADR-RES ovarian
  TGI: > 100 µM
OVCAR-3 ovarian
  TGI: > 100 µM
OVCAR-4 ovarian
  TGI: > 100 µM
OVCAR-5 ovarian
  TGI: > 100 µM
OVCAR-8 ovarian
  TGI: > 100 µM
PC-3 prostate
  TGI: > 100 µM
RPMI-8226 leukemia
  TGI: > 100 µM
RXF 393 renal
  TGI: > 100 µM
SF-268 CNS
  TGI: > 100 µM
SF-295 CNS
  TGI: > 100 µM
SF-539 CNS
  TGI: > 100 µM
SK-MEL-2 melanoma
  TGI: > 100 µM
SK-MEL-28 melanoma
  TGI: > 100 µM
SK-MEL-5 melanoma
  TGI: > 100 µM
SK-OV-3 ovarian
  TGI: > 100 µM
SN12C renal
  TGI: > 100 µM
SNB-19 CNS
  TGI: > 100 µM
SNB-75 CNS
  TGI: > 100 µM
SR leukemia
  TGI: > 100 µM
SW-620 colon
  TGI: > 100 µM
T-47D breast
  TGI: > 100 µM
TK-10 renal
  TGI: > 100 µM
U251 CNS
  TGI: > 100 µM
UACC-257 melanoma
  TGI: > 100 µM
UACC-62 melanoma
  TGI: > 100 µM
UO-31 renal
  TGI: > 100 µM

Source: PubChem BioAssay (NCI)
